Experimental data taken from PMC9969250 (2023).

What was measured:
[1] = test system: MN4 (DNA, aptamer) GGCGACAAGGAAAATCCTTCAACGAAGTGGGTCGCC; assay: quinine fluorescence quenching; conditions: PBS, 5 mM MgCl2; pH 7.4, 20 °C; 0.1 μM quinine; three-parameter fit; per site
[2] = test system: A (boxcar A) (DNA, aptamer) CGTCTAATCTAATCAGGCGACAAGGAAAATCCTTCAACGAAGTGGGTCGCCCTAACTCTCTATCCG; assay: quinine fluorescence quenching; conditions: PBS, 5 mM MgCl2; pH 7.4, 20 °C; 0.1 μM quinine; three-parameter fit; per site

C=C[C@H]1CN2CC[C@H]1C[C@H]2[C@H](O)c1ccnc2ccc(OC)cc12
KD [1]: 0.28 ± 0.06 µM | KD [2]: 0.38 ± 0.13 µM
